Read-outs that look alike come from different tables or passages of the source.
What was measured:
3T3-L1 cells = experiment: Inhibition test on adipocyte differentiation (counting of Oil Red O stained cells); format: cell-based, mouse; conditions: 3 days in differentiation medium, microscopical counting of Oil Red O stained cells
Description: (§1) 3T3-L1 mouse embryonic fibroblast was cultured according to Singh's method (Singh R, Testosterone inhibits adipogenic differentiation in 3T3-L1 cells: Nuclear translocation of androgen receptor complex with β-catenin and T-cell factor 4 may bypass canonical WNT signaling to down-regulate adipogenic transcription factors, Endocrinology, 2006, 147, 141 to 154).
(§2) 3T3-L1 cells supplied by Korean cell line bank were cultured on a Dulbecco's modified Eagle's medium (DMEM) medium that includes 10% bovine calf serum and 1% penicillin-streptomycin mixture. When they reached confluence, culturing was continued for further 2 to 3 days. Thereafter, the medium was replaced by a fresh DMEM medium containing 10% fetal bovine serum, 1.7 μM insulin, 0.5 mM 3-isobutyl-1-methylxanthine (IBMX) and 1 μM dexamethasone and culturing was continued for 8 days. For the evaluation of inhibitory activities of capsanthin on adipocyte differentiation and on triglycerides accumulation in adipocyte, a positive control experiments were conducted on capsaicin (sigma) and/or genistein (sigma).
Mouse embryonic 3T3-L1 cells were plated in 12-well culture plate with DMEM containing 10% BCS (Bovine calf serum) and cultured for the proliferation of cells under 5% CO2 atmosphere at 37° C. until confluent phase is appeared. Continued culture for additional 2 days will ensure the clonal expansion. Culture media is replaced with differentiation medium consisting of DMEM, 10% FBS, 1.7 uM insulin, 0.5 mM IBMX, 1 uM dexamethasone and varying amount of capsanthin in DMSO (final concentration of DMSO in the differentiation media were kept under 0.1%) and cultured additional 3 days for the induction of cell differentiation Culture media was removed and washed with PBS and the cells were fixed on the well surface by incubation with 10% formaldehyde for one hour and then washed with PBS. The differentiate cells were stained with Oil Red O solution for 2 hours. The number of adipocyte stained red was counted with microscopical observation.

3T3-L1 cell = experiment: Inhibitory activity on triglycerides accumulation in adipocyte (Oil Red O staining); format: cell-based, mouse; conditions: read-out: IC50-value on triglycerides accumulation in adipocyte
Description: as §1, §2
Negal's Oil red O staining procedure (Negrel R, Culture of adipose precursor cell and cells of clonal lines from animal white adipose tissue, in adipose tissue protocols. G. Ailhaud (ed). Humana press, inc., Totowa, N.J., 2001, 225-237) was adopted to assay the quantities of triglyceides accumulated in adipocytes. The pre-adipocytes (3T3-L1 cell) were cultured in 12-well culture plate for additional two days to induce clonal expansion after the confluent phase. The culture media was replaced with differentiation media which is containing various concentration of capsanthin solution in DMSO (final concentration of DMSO in the differentiation media were kept under 0.1%) and cultured for additional 8 days to induce lipid accumulation. The culture media was removed by aspiration and washed with PBS. The cells were fixed on the surface of culture well by incubation for one hour with 500 ul of 10% formaldehyde solution. After removal of formaldehyde the cells were washed with PBS and then stained by incubation with Oil Red O for 2 hours. After two removal of Oil Red O solution by aspiration the cells were washed with PBS and then Oil Red O in adipocyte was extracted by incubation 10 minutes with 1 ml isopropyl-alcohol. Oil Red O contents in isopropyl-alcohol were assayed by 510 nm absorption on ELISA reader.

[1] = Stability during fermentation of kochujang; format: physicochemical
Excerpt: Capsanthin is contained in the natural products such as red peppers as the chemically stable esterified-form. Therefore, even when red peppers or the likes are included in fermented foods as the Korean traditional foods like “kimchi” or “kochujang” (also referred to as “gochujang”), original anti-adipogenic activities thereof are retained. On the other hand, it was found in our laboratory that about 35% or more of anti-adipogenic capsaicin component was destroyed during 6 month-long fermentation.
Red pepper is a traditional spicy vegetable food and more than 90% of total consumption in Korea is used to prepare traditional fermented food such as “kimchi” and “kochujang” in Korea. […] Based on this observation, present inventors are claiming that the anti-adipogenic activity of “kochujang” is due more to capsanthin components rather than to the capsaicin or capsaicin metabolite.

[2] = design: species or system Sprague-Dawley albino rats; conditions: rat, in vivo
Description: Male Sprague-Dawley albino rats were used for the analysis of gastro-intestinal absorption of capsanthins. Animals were accommodated in a constant humidity of 50 (±5) % and constant temperature of 25 (±1)° C. under shading control of light and dark with 12 hours intervals. Feeds and water supplies were provided at libidium.
Free-form capsanthin (15 mg/kg body wt) in soy-bean oil was orally administered to group-1 animals and then 4 ml time-course blood samples were collected from the animals to EDTA tubes and centrifuged (3,000 rpm, 10 min) to obtain 1 ml plasma samples. To the plasma samples 1 ml of 1%-BHT in ethanol and 2 ml hexane were mixed, shaked vigorously and centrifuged for 5 minutes at 2,000 rpm to obtain hexane layer for the HPLC-analysis under the HPLC-condition appears in Example 10. (M. A. Grashom, Quantification of carotenoids in chicken plasma after feeding free of esterified lutein and capsanthin using high-performance liquid chromatography and liquid chromatography-mass spectrometry analysis, Poultry science, 2003, 82, 395-401, Hideo E, Carotenoids in human blood plasma after ingesting paprika juice)
Fatty-acyl ester of capsanthin was orally administered to group-2 animals equimolar dosage bases with that of free-form capsanthin. The time course collection of blood and further treatments were conducted as same way with that of group-1 experiments [Ref. to 0086]

[3] = 3T3-L1 cells, 8 days in differentiation media, Oil Red O

Q: With `COc1cc(CNC(=O)CCCC/C=C/C(C)C)ccc1O` [capsaicin] as the molecule, how does the IC50 (3T3-L1 cells; Mus musculus, 72 h) read?
A: Its IC50 is 3.39 µM.

Q: What about the IC50 (3T3-L1 cell; Mus musculus, 3T3-L1, 192 h) of the same molecule?
A: Its IC50 is 32.6 µM.

Q: What about the “Component destroyed during fermentation” value ([1]; 6 month-long fermentation) of the same molecule?
A: Its value is at least 35%.

Q: What about the “Chemical alteration during fermentation of kochujang” value [1] of the same molecule?
A: The value was “significant decomposition”.

Q: With `CC1=C(/C=C/C(C)=C/C=C/C(C)=C/C=C/C=C(C)/C=C/C=C(C)/C=C/C(=O)[C@]2(C)C[C@@H](O)CC2(C)C)C(C)(C)C[C@H](O)C1` [free-form capsanthin, capsanthin] as the molecule, how does the IC50 (3T3-L1 cells) read?
A: Its IC50 is 4.49 µM.

Q: And the “Molecular species found in the blood by HPLC after oral administration” value [2]?
A: The value was “appeared in the blood”.

Q: And the IC50 (3T3-L1 cell; [3])?
A: Its IC50 is 1.31 µM.

Q: What does the source list for `O=c1c(-c2ccc(O)cc2)coc2cc(O)cc(O)c12` [genistein]?
A: IC50 (3T3-L1 cells; Mus musculus, 72 h): 28.1 µM; IC50 (3T3-L1 cell; Mus musculus, 192 h, 3T3-L1 cells, 8 days in differentiation media, Oil Red O): 58.7 µM

Q: For “fatty-acyl ester of capsanthin [esterified-form capsanthin]”, which IC50 (3T3-L1 cells) is on record?
A: Its IC50 is 75.4 µM.

Q: What about the “Molecular species found in the blood by HPLC after oral administration” value [2] of the same molecule?
A: Its value is “not detected”.

Q: And the IC50 (3T3-L1 cell; [3])?
A: The IC50 was 55.2 µM.

Q: And the “Chemical alteration during fermentation of kochujang” value [1]?
A: The value was “remained without any chemical alteration”.

Q: With fucoxanthin as the molecule, how does the IC50 (3T3-L1 cells) read?
A: Its IC50 is 79.1 µM.

Q: And the IC50 (3T3-L1 cell; [3])?
A: Its IC50 is 54.8 µM.
